Ends that are not written are not given here. Peptide text beside a SMILES is read from it. * marks the point of attachment. Cbz = O=C(OCc1ccccc1)*
Columns and labels:
BASOPHIL Fc Receptor IgE = biological target: T1, BASOPHIL Fc Receptor IgE (Homo sapiens, UniProt P12319); assay: Rosette inhibition assay, basophil IgE Fc receptor; type: binding; settings: basophils from a patient with basophilic chronic myelogenous leukemia; relative to monomeric myeloma IgE; NS = not significantly different from 0
T1 construct: the cells expressing surface Fc receptors formed rosettes; endogenous in cells; host or cells: basophils of a patient with basophilic chronic myelogenous leukemia
T1 sequence (P12319 26-257): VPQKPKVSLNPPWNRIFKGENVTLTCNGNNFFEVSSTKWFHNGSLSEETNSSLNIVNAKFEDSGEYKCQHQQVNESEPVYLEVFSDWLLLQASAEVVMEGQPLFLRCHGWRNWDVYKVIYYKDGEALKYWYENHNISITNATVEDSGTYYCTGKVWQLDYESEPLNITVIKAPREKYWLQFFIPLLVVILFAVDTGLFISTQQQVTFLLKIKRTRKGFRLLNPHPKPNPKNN
T1 sequence (Q01362 1-244 partner): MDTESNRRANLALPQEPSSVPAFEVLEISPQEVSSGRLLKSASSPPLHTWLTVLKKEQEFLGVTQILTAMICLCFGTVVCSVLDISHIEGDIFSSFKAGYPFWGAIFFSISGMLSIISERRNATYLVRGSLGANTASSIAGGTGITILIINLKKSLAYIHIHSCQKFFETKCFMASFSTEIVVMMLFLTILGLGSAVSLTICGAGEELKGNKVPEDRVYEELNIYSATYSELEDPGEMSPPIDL
T1 sequence (P30273 19-86 partner): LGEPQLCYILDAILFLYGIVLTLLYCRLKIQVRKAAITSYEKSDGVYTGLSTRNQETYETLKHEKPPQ
Method: (§1) The Fc receptor blocking activity of the subject peptides was assessed using well established techniques and procedures. In particular, a rosette assay was employed which uses either monomeric, chemically or heat aggregated human IgG or IgE obtained from human myeloma sera. (Gonzalez-Molina, et al., J. Clin. Invest., 59, 616 (1977); Spiegelberg, et al. in Immunoassays: Clinical Laboratory Techniques for the 1980's (Alan R. Liss: New York, 1980), pp. 287-300). The IgG or IgE is then adsorbed to ox-erythrocytes which has been previously treated with trypsin and pyruvic aldehyde. Fresh human cell PMNs, monocytes and basophils from a patient with basophilic chronic myelogenous leukemia or human cell lines (RPMI-8866, and Daudi for lymphocyte Fc receptors and U937 for monocyte/macrophage Fc receptors) were then incubated in the presence or absence of inhibitors (monomeric IgG or IgE or peptides) at equal concentrations for fifteen minutes before addition of the indicator oxerythrocytes. In the absence of inhibitors, the cells expressing surface Fc receptors formed rosettes, clusters of three or more indicator erythrocytes that bound to the cells by virtue of exposed Fc regions on the erythrocyte surface. Addition of inhibitor myeloma proteins or inhibitor peptides produced a reproducable reduction of rosette formation, […], phosphate buffered isotonic saline, was used alone as control and then multiplying the calculated quotient by 100.
(§2) Table 1 presents the inhibition observed by representative peptide inhibitors calculated as a percentage of the inhibition observed with intact, monomeric myeloma proteins. Thus, 50 percent inhibition implys that the peptide was 50% as inhibitory as the intact myeloma protein to which it was compared.

[1] = biological target: T2, LYMPHOCYTE Fc Receptor IgE (Homo sapiens, UniProt P06734); assay: Rosette inhibition assay, lymphocyte IgE Fc receptor; type: binding; settings: RPMI-8866 and Daudi cell lines; relative to intact monomeric myeloma IgE at equal concentration; NS = not significantly different from 0
T2 construct: the cells expressing surface Fc receptors formed rosettes; endogenous in cells; host or cells: RPMI-8866 / Daudi
T2 sequence (P06734 1-321): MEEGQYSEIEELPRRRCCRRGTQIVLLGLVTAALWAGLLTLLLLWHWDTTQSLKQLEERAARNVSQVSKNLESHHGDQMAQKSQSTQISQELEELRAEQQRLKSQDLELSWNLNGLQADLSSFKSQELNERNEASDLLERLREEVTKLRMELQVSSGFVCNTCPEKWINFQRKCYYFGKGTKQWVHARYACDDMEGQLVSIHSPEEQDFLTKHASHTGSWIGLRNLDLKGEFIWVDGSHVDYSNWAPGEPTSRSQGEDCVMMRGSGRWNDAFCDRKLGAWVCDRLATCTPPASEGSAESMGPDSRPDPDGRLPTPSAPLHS
Method: as §1, §2

[2] = biological target: T3, LYMPHOCYTE Fc Receptor IgG (Homo sapiens, UniProt P31994); assay: Rosette inhibition assay, lymphocyte IgG Fc receptor; type: binding; settings: RPMI-8866 and Daudi cell lines; relative to intact monomeric myeloma IgG at equal concentration; NS = not significantly different from 0
T3 construct: the cells expressing surface Fc receptors formed rosettes; endogenous in cells; host or cells: RPMI-8866 / Daudi
T3 sequence (P31994 43-310): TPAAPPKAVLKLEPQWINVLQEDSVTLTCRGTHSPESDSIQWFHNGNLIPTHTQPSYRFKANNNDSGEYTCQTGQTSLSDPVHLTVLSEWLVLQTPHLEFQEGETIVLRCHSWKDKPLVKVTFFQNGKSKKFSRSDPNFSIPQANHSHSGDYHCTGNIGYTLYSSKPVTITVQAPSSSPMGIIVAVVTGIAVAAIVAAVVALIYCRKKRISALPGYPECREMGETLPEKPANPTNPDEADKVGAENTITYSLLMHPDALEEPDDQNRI
Method: as §1, §2

[3] = biological target: T4, MONOCYTE/MACROPHAGE Fc Receptor IgE (Homo sapiens, UniProt P06734); assay: Rosette inhibition assay, monocyte/macrophage IgE Fc receptor; type: binding; settings: human monocytes or U937; relative to intact monomeric myeloma IgE at equal concentration; NS = not significantly different from 0
T4 construct: the cells expressing surface Fc receptors formed rosettes; endogenous in cells; host or cells: fresh human monocytes or U937
T4 sequence (P06734 1-321): T2 sequence (P06734 1-321)
Method: as §1, §2

C1q Fc receptor = C1q Fc receptor (Homo sapiens, UniProt P02745+P02746+P02747); settings: peptides adsorbed to erythrocytes; Johnson and Thames 1975, Boackle et al. 1979; cited from earlier work
C1q Fc receptor, sequence (P02745 23-245): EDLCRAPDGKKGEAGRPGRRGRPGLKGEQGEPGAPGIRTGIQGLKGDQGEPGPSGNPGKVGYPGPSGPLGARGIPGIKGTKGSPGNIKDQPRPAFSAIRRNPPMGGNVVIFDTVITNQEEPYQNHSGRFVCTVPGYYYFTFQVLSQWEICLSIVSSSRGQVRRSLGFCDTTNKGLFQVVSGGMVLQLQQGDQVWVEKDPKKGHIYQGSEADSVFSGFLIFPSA
C1q Fc receptor, sequence (P02746 28-253): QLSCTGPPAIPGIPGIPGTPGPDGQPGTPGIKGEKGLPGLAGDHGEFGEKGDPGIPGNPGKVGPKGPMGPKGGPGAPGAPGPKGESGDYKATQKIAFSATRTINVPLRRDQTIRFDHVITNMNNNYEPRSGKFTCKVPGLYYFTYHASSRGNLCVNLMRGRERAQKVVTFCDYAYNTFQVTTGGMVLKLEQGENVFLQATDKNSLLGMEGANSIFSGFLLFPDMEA
C1q Fc receptor, sequence (P02747 29-245): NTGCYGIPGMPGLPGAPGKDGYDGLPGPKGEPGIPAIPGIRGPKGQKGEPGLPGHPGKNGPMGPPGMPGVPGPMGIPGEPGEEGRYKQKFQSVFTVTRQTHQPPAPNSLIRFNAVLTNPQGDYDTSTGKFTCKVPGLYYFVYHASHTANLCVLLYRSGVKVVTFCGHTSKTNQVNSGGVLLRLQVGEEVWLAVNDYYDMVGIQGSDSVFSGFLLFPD
C1q Fc receptor, sequence (P00736 18-705 partner): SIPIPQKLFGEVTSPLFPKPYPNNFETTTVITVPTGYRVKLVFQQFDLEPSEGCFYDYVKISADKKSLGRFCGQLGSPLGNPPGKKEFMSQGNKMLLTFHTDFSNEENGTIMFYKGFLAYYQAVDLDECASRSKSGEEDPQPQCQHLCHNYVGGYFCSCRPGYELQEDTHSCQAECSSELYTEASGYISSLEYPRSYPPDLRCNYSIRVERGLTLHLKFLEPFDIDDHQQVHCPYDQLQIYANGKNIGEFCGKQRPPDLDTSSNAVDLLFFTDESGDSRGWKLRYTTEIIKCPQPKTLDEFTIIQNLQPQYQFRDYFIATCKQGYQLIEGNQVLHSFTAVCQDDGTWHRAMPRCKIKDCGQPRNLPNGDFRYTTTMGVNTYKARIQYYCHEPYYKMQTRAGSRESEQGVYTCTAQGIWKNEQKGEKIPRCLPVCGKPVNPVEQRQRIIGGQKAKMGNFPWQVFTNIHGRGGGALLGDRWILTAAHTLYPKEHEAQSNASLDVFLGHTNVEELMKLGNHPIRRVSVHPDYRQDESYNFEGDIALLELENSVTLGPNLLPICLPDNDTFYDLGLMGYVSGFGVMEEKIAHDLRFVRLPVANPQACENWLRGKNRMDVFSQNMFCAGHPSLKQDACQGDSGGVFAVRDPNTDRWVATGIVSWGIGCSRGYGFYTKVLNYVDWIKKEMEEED
C1q Fc receptor, sequence (P09871 16-688 partner): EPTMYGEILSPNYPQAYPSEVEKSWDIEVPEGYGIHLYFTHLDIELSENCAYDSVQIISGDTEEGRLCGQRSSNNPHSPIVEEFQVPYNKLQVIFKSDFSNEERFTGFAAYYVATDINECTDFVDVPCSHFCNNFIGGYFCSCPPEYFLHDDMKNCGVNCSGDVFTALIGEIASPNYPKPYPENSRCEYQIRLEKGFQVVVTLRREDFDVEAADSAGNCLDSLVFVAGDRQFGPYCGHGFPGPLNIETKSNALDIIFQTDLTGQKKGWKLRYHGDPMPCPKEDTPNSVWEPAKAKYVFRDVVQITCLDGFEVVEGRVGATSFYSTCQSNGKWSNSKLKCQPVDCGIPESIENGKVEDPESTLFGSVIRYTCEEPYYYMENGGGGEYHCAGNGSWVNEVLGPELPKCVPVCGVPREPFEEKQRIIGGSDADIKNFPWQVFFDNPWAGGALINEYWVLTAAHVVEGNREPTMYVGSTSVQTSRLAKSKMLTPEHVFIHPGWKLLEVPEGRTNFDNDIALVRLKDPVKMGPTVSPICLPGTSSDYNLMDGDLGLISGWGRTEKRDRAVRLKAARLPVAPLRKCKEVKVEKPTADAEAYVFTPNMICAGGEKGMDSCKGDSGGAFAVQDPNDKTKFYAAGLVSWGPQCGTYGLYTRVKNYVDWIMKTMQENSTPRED

TISKAKGQPR
Rosette inhibition expressed as percent inhibition by monomeric IgE; basophil Fc receptor, IgE (BASOPHIL Fc Receptor IgE): 133%
Rosette inhibition expressed as percent inhibition by monomeric IgE; lymphocyte Fc receptor, IgE [1]: 106%
Rosette inhibition expressed as percent inhibition by monomeric IgG; lymphocyte Fc receptor, IgG [2]: 84%
Rosette inhibition expressed as percent inhibition by monomeric IgE; monocyte/macrophage Fc receptor, IgE [3]: 87%

TrpTyrValAspGly (WYVDG; printed: TrpTyrValAspGly)
complement activating ability (C1q-mediated cell lysis) (C1q Fc receptor): less active

YDYYVDG
complement activating ability (C1q-mediated cell lysis) (C1q Fc receptor): less active

VHEAKAKPGR
complement activating ability (C1q-mediated cell lysis) (C1q Fc receptor): less active

CC(=O)N[C@@H](CCC(N)=O)C(=O)N1CCC[C@H]1C(=O)N[C@@H](CCC(=O)O)C(=O)N[C@@H](CC(N)=O)C(=O)O [Ac--Gln--Pro--Glu--Asn, Ac-Gln-Pro-Glu-Asn] (Ac-QPEN-OH)
Rosette inhibition expressed as percent inhibition by monomeric IgE; basophil Fc receptor, IgE (BASOPHIL Fc Receptor IgE): 89%
Rosette inhibition expressed as percent inhibition by monomeric IgG; lymphocyte Fc receptor, IgG [2]: 94%
Rosette inhibition expressed as percent inhibition by monomeric IgE; monocyte/macrophage Fc receptor, IgE [3]: 55%

N=C(N)NCCC[C@H](NC(=O)[C@H](CO)NC(=O)[C@H](CCCCN)NC(=O)[C@@H](N)CC(=O)O)C(=O)O [Asp--Lys--Ser--Arg, Asp-Lys-Ser-Arg] (H-DKSR-OH)
Rosette inhibition expressed as percent inhibition by monomeric IgE; basophil Fc receptor, IgE (BASOPHIL Fc Receptor IgE): 89%
Rosette inhibition expressed as percent inhibition by monomeric IgE; lymphocyte Fc receptor, IgE [1]: 23%
Rosette inhibition expressed as percent inhibition by monomeric IgG; lymphocyte Fc receptor, IgG [2]: 86%
Rosette inhibition expressed as percent inhibition by monomeric IgE; monocyte/macrophage Fc receptor, IgE [3]: 38%

TRAEAEQKD [Thr--Arg--Ala--Glu--Ala--Glu--Gln--Lys--Asp]
Rosette inhibition expressed as percent inhibition by monomeric IgE; basophil Fc receptor, IgE (BASOPHIL Fc Receptor IgE): 108%
Rosette inhibition expressed as percent inhibition by monomeric IgE; monocyte/macrophage Fc receptor, IgE [3]: 21%

NCCCC[C@H](NC(=O)[C@H](CCC(N)=O)NC(=O)[C@@H](N)CCC(=O)O)C(=O)N[C@@H](CC(=O)O)C(=O)O [Glu--Gln--Lys--Asp] (H-EQKD-OH)
Rosette inhibition expressed as percent inhibition by monomeric IgE; basophil Fc receptor, IgE (BASOPHIL Fc Receptor IgE): 106%

KADWYVDG
complement activating ability (C1q-mediated cell lysis) (C1q Fc receptor): about as effective in activating C1q-mediated cell lysis as immune complexes formed by heat aggregated IgG

TyrGluArgGly (YERG; printed: TyrGluArgGly)
complement activating ability (C1q-mediated cell lysis) (C1q Fc receptor): less active

KFEWYVEGVE
complement activating ability (C1q-mediated cell lysis) (C1q Fc receptor): less active

KYDWYVDG
complement activating ability (C1q-mediated cell lysis) (C1q Fc receptor): less active

RSTTKTSGPR
Rosette inhibition expressed as percent inhibition by monomeric IgE; basophil Fc receptor, IgE (BASOPHIL Fc Receptor IgE): 110%
Rosette inhibition expressed as percent inhibition by monomeric IgE; lymphocyte Fc receptor, IgE [1]: 87%
Rosette inhibition expressed as percent inhibition by monomeric IgG; lymphocyte Fc receptor, IgG [2]: 100%
Rosette inhibition expressed as percent inhibition by monomeric IgE; monocyte/macrophage Fc receptor, IgE [3]: 87%

DKSRAQQGN [Asp--Lys--Ser--Arg--Ala--Gln--Gln--Gly--Asn]
Rosette inhibition expressed as percent inhibition by monomeric IgE; basophil Fc receptor, IgE (BASOPHIL Fc Receptor IgE): 74%

SVMHEALHNHYTQK [Ser--Val--Met--His--Glu--Ala--Leu--His--Asn--His--Tyr--Thr--Gln--Lys]
Rosette inhibition expressed as percent inhibition by monomeric IgE; basophil Fc receptor, IgE (BASOPHIL Fc Receptor IgE): 74%
Rosette inhibition expressed as percent inhibition by monomeric IgE; monocyte/macrophage Fc receptor, IgE [3]: 28%

NCCCC[C@H](NC(=O)[C@H](CO)NC(=O)[C@H](CCCCN)NC(=O)[C@@H](N)CC(=O)O)C(=O)O [Asp--Lys--Ser--Lys] (H-DKSK-OH)
Rosette inhibition expressed as percent inhibition by monomeric IgE; basophil Fc receptor, IgE (BASOPHIL Fc Receptor IgE): 94%
Rosette inhibition expressed as percent inhibition by monomeric IgG; lymphocyte Fc receptor, IgG [2]: 16%

TTQPR [Thr--Thr--Gln--Pro--Arg]
Rosette inhibition expressed as percent inhibition by monomeric IgE; basophil Fc receptor, IgE (BASOPHIL Fc Receptor IgE): 80%
Rosette inhibition expressed as percent inhibition by monomeric IgG; lymphocyte Fc receptor, IgG [2]: 36%
Rosette inhibition expressed as percent inhibition by monomeric IgE; monocyte/macrophage Fc receptor, IgE [3]: 58%

C[C@H](NC(=O)[C@H](CCCNC(=N)N)NC(=O)[C@@H](N)[C@@H](C)O)C(=O)N[C@@H](CCC(=O)O)C(=O)O [Thr--Arg--Ala--Glu, Thr-Arg-Ala-Glu] (H-TRAE-OH)
Rosette inhibition expressed as percent inhibition by monomeric IgE; basophil Fc receptor, IgE (BASOPHIL Fc Receptor IgE): 41%
Rosette inhibition expressed as percent inhibition by monomeric IgG; lymphocyte Fc receptor, IgG [2]: 49%
Rosette inhibition expressed as percent inhibition by monomeric IgE; monocyte/macrophage Fc receptor, IgE [3]: 20%

DSNPR [Asp--Ser--Asn--Pro--Arg]
Rosette inhibition expressed as percent inhibition by monomeric IgE; basophil Fc receptor, IgE (BASOPHIL Fc Receptor IgE): 37%
Rosette inhibition expressed as percent inhibition by monomeric IgE; monocyte/macrophage Fc receptor, IgE [3]: 48%

Tyr-Glu-Ala-Gly (YEAG; printed: Tyr-Glu-Ala-Gly)
complement activating ability (C1q-mediated cell lysis) (C1q Fc receptor): inactive

YSKLTVDKSR [reference compound]
Rosette inhibition expressed as percent inhibition by monomeric IgE; basophil Fc receptor, IgE (BASOPHIL Fc Receptor IgE): 89%
Rosette inhibition expressed as percent inhibition by monomeric IgG; lymphocyte Fc receptor, IgG [2]: 29%
Rosette inhibition expressed as percent inhibition by monomeric IgE; monocyte/macrophage Fc receptor, IgE [3]: 33%

ZAsnTrpTyrVal (Cbz-NWYV)
complement activating ability (C1q-mediated cell lysis) (C1q Fc receptor): less active

KFDWAVDG
complement activating ability (C1q-mediated cell lysis) (C1q Fc receptor): less active

TVLHQNWLDGK
Rosette inhibition expressed as percent inhibition by monomeric IgE; basophil Fc receptor, IgE (BASOPHIL Fc Receptor IgE): 100%
Rosette inhibition expressed as percent inhibition by monomeric IgE; lymphocyte Fc receptor, IgE [1]: 95%
Rosette inhibition expressed as percent inhibition by monomeric IgG; lymphocyte Fc receptor, IgG [2]: 34%
Rosette inhibition expressed as percent inhibition by monomeric IgE; monocyte/macrophage Fc receptor, IgE [3]: 95%

PDARHSTTQPR [Pro--Asp--Ala--Arg--His--Ser--Thr--Thr--Gln--Pro--Arg]
Rosette inhibition expressed as percent inhibition by monomeric IgE; basophil Fc receptor, IgE (BASOPHIL Fc Receptor IgE): ~ 130%
Rosette inhibition expressed as percent inhibition by monomeric IgE; lymphocyte Fc receptor, IgE [1]: 100%
Rosette inhibition expressed as percent inhibition by monomeric IgG; lymphocyte Fc receptor, IgG [2]: 92%
Rosette inhibition expressed as percent inhibition by monomeric IgE; monocyte/macrophage Fc receptor, IgE [3]: 103%

YVEWGERG
complement activating ability (C1q-mediated cell lysis) (C1q Fc receptor): less active

KFDAYVDG
complement activating ability (C1q-mediated cell lysis) (C1q Fc receptor): less active

EWYERG
complement activating ability (C1q-mediated cell lysis) (C1q Fc receptor): less active

Trp-Leu
complement activating ability (C1q-mediated cell lysis) (C1q Fc receptor): inactive

ZValGluTrpGly (Cbz-VEWG)
complement activating ability (C1q-mediated cell lysis) (C1q Fc receptor): less active

Source: patent US4579840A, “Method of blocking immune complex binding to immunoglobulin Fc receptors” (Immunetech Pharmaceuticals, priority 1983, dated 1986)
